Data: article PMC8668240, “GABAA Receptor Subunit Composition Drives Its Sensitivity to the Insecticide Fipronil” (Frontiers in Neuroscience, 2021)

How the values were obtained:
Assay in all cases: two-electrode voltage clamp, Xenopus oocytes
Format in all cases: cell-based
α6β3 GABAAR (binary) [1] = biological target: T1, α6β3 GABAAR (binary) (Mus musculus, UniProt P16305+P63080); settings: read-out: IC50 (μM, ± SEM)
T1 construct: gene Gabra6; full-length cDNAs, injected 1:1 in Xenopus oocyte nucleus; heteropentamer without third subunit
Source text: two-electrode voltage clamp, Xenopus oocytes on α6β3 GABAAR (binary)

[2] = biological target: T2, α6β3δ GABAAR (extrasynaptic) (Mus musculus, UniProt P16305+P22933+P63080); settings: read-out: IC50 (μM, ± SEM)
T2 construct: gene Gabra6; full-length cDNAs, injected 1:1:5 in Xenopus oocyte nucleus; heteropentamer
Source text: two-electrode voltage clamp, Xenopus oocytes on α6β3δ GABAAR (extrasynaptic)

β3 homopentamer = biological target: T3, β3 homopentamer (Mus musculus, UniProt P63080); settings: current through spontaneously open β3; 1, 10 and 100 μM FPN; no GABA; positive modulator
T3 construct: gene Gabrb3; full-length cDNA in pGW1 (= pRK5), expressed in Xenopus oocytes; homopentamer

α6β3 GABAAR (binary) [3] = biological target: T1, α6β3 GABAAR (binary)

T1 sequence (P16305 20-453): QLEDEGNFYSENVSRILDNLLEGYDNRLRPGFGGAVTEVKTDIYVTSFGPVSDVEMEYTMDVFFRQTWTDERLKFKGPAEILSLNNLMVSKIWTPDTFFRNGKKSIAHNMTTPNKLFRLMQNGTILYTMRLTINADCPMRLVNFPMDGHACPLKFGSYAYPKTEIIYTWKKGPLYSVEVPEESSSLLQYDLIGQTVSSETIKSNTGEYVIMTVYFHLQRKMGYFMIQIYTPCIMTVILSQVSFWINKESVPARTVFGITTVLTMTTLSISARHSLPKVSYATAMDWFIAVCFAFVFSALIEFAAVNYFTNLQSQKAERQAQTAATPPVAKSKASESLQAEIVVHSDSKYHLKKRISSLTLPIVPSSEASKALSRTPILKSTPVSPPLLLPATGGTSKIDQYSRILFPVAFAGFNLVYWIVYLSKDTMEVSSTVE
T1 sequence (P63080 26-473): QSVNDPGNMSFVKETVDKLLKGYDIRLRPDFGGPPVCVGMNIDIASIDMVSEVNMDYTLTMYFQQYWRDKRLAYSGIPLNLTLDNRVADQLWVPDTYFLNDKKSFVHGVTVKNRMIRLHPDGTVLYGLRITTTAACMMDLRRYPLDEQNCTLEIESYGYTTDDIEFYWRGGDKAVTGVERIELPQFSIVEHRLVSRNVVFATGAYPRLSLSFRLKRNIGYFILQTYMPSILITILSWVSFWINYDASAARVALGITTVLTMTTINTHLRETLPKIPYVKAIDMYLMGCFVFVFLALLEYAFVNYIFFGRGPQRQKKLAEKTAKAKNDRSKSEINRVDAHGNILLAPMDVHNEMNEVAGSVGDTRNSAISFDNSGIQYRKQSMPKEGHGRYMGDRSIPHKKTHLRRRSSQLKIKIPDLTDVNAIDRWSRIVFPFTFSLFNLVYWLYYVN
T2 sequence (P63080 26-473): as above
T2 sequence (P22933 25-449): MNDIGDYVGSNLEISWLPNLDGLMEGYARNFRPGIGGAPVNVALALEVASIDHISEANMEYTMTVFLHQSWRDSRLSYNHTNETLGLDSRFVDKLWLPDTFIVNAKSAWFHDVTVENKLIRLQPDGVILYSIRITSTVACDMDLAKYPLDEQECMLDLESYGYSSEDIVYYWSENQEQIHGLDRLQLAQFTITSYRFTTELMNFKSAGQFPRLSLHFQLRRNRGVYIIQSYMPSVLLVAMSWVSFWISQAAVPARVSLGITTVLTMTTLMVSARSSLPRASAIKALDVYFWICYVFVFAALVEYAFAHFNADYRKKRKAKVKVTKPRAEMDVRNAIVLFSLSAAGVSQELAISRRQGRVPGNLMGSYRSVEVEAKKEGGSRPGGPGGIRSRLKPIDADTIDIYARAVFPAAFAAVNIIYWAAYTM
T2 sequence (P16305 20-453): as the sequence (P16305 20-453) above
T3 sequence (P63080 26-473): as the sequence (P63080 26-473) above

Row | SMILES | IC50 (α6β3 GABAAR (binary) [1]) | IC50 [2] | two-electrode voltage clamp, Xenopus oocytes (β3 homopentamer) | EC50 (α6β3 GABAAR (binary) [3])
1 | N#Cc1nn(-c2c(Cl)cc(C(F)(F)F)cc2Cl)c(N)c1[S+]([O-])C(F)(F)F (stereo not shown) [fipronil] | 2.4 ± 0.4 µM | 20.7 ± 2.6 µM | The current density increases as a function of FPN concentrations | 
2 | NCCCC(=O)O [GABA] |  |  |  | 430 ± 10 nM
